For data set [1], the system named is LPS-induced increase in plasma nitrite/nitrate levels. Briefly: In vivo assay: endotoxin (LPS)-treated rats, plasma nitrite/nitrate. Also on record: species or system rat. The settings on record: Rattus norvegicus, oral administration, plasma nitrite/nitrate 5 hours post-treatment, read-out: ED50. The method, then: Plasma nitrite/nitrate levels can be determined 5 hours post-treatment.

The target of another data set is i-NOS (Homo sapiens, UniProt P35228). Briefly: Comparison of i-NOS inhibition with NIL amide and NIL dimethylamide. The class given is biochemical.
Chain of i-NOS (P35228 whole entry): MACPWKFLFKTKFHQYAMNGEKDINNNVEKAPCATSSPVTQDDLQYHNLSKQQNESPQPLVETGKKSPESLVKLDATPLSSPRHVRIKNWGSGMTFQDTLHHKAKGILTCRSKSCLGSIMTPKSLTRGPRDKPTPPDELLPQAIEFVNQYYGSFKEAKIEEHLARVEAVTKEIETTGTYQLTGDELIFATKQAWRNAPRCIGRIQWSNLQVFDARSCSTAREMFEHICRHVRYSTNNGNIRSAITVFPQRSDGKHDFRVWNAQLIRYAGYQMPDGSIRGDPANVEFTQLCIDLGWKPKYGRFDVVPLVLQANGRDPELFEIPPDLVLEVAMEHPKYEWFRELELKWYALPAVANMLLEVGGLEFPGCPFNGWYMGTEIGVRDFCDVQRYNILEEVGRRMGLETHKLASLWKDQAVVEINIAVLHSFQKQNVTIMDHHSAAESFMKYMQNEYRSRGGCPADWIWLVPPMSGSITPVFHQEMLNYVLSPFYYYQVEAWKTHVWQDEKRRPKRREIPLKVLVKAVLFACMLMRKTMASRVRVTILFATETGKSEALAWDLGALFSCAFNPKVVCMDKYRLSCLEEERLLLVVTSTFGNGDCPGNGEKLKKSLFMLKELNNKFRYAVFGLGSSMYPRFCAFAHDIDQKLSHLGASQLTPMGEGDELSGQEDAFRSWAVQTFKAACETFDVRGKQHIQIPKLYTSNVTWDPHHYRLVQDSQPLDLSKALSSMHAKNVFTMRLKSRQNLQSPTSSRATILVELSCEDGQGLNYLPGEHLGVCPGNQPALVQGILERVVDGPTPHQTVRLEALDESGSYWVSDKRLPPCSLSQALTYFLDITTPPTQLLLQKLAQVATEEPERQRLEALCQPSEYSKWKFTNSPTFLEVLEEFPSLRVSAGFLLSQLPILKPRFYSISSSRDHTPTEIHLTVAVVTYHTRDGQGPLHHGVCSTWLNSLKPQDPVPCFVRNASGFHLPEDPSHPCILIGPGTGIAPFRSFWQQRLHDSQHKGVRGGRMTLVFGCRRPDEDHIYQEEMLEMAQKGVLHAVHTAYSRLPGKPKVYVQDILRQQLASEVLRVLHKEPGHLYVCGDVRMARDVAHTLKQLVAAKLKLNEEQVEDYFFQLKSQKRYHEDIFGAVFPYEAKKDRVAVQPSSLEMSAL
Data set [2] concerns exhaled breath nitric oxide (NO). Briefly: Clinical study: exhaled breath NO after single oral dose. The class given is in vivo, human. The method, then:
(§1) A single center study was performed at the National Heart and Lung Institute (NHLI) Clinical Studies Unit in London, UK. The clinical protocol was submitted and accepted by the Ethics Committee of the Royal Brompton Hospital Trust, and the study was carried out according to Good Clinical Practice standards. Each subject provided written informed consent.
(§2) Twenty-four, adult, healthy volunteers and 24 patients with mild asthma participated in this study. All subjects were lifelong non-smokers. Asthma patients (n=24) had mild asthma according to American Thoracic Society Criteria, with medication on an as required basis with inhaled albuterol only. […] All asthmatic patients had baseline exhaled breath NO levels of >15 parts per billion (ppb). Healthy control (n=24) subjects were matched for age and sex, and had no clinically significant disease. Healthy subjects were required to have baseline exhaled NO levels between 4 and 9 ppb.
The study included 2 panels of healthy volunteers and asthmatic patients who received in a double-blind, randomized manner, a single dose of oral compound NN or placebo. The study was carried out in two phases according to the dose of compound NN under investigation. […] The study evaluated the tolerability and pharmacokinetics of orally-administered compound NN and monitored levels of exhaled breath NO.
Measurement of exhaled NO: Exhaled NO was measured using a chemoluminescence analyzer (Logan 2000, Rochester, UK) and methods in accordance with International Guidelines. […] Two successive recordings were taken, and the average value was calculated.
Statistical methods for clinical data: Exhaled NO data, including change from baseline and the percentage change, were tested for normality using the Shapiro-Wilks test. […] The area under the curve (AUC) for the change from baseline and the percentage change, and the differences between active and placebo were calculated. […]

Data set [3] is described as follows: Clinical study: tolerability, FEV1, blood pressure, heart rate, laboratory parameters. The class given is in vivo, human. The protocol: as §1, §2
The study included 2 panels of healthy volunteers and asthmatic patients who received in a double-blind, randomized manner, a single dose of oral compound NN or placebo. The study was carried out in two phases according to the dose of compound NN under investigation. The first panel consisted of patients with mild-to-moderate asthma (n=12) and healthy subjects (n=12) who received single doses of 20 mg of compound NN and placebo, while the second panel of mild-to-moderate asthmatics (n=12) and healthy subjects (n=12) received single doses of 200 mg of compound NN and placebo. No patient or subject participated in both panels of this study. Evaluation of the first panel was completed before moving on to the second panel. The study evaluated the tolerability and pharmacokinetics of orally-administered compound NN and monitored levels of exhaled breath NO.
Forced expiratory volume in 1 sec (FEV1) and heart rate data had no significant deviations from normality using the Shapiro-Wilks test, therefore parametric statistical methods were used, and the significance of the change from baseline was tested using a paired […]. […]

A further data set has as its system exhaled NO. Conditions: high doses, literature; cited from earlier work.
Another data set relates to airway inflammation. Conditions: murine model of allergic asthma; by down-regulation of chemokine expression; cited from earlier work.
In data set [4] the test system is iNOS activity in human primary airway epithelial cells. Briefly: Nitrite in media of cytokine-treated human primary airway epithelial cells. The class given is cell-based. Conditions: 50 ng/ml IL-1β, TNF-α and IFN-γ (cytomix), 24 h; FIG. 1; read-out: IC50 for inhibition of the increase in nitrite in the media. The method, then: Human primary airway epithelial cell cultures: Human primary airway epithelial cells were cultured as described previously (see Donnelly,L. E. and Barnes, P. J. Am J Respir Cell Mol.Biol 24:295-303 (2000)), and the amount of nitrite, the stable oxidation product of NO, in the cell culture media was measured using a modification of the spectrofluorometric method of Misko et al., Anal. Biochem. […] (1993).
The protein was evenly distributed throughout the cytoplasm in basal cells but clearly located beneath the cilia in the columnar, ciliated cells. Treatment of airway epithelial cells with 50 ng/ml of IL-1β, TNF-α and IFN-γ (cytomix) for 24 h caused an induction of iNOS protein and an increase in the accumulation of nitrite in cell culture media from 2.20±0.2 μM in the absence of cytomix, to 3.5±0.4 μM in the presence of cytomix.
Media was harvested and measured for nitrite content (FIG. 1). Cellular proteins were resolved on 3-8% tris-acetate polyacrylamide gels and immunoblotted for iNOS protein (FIG. 2).
Rather, as expected, it appears to result from inhibition of enzymatic activity.

For data set [5], the system named is iNOS protein expression in human primary airway epithelial cells. The experiment in a line: Western blotting of iNOS from cultured epithelial cells. The class given is cell-based. Conditions: cytomix-treated cells; FIG. 2. The protocol: Westem blotting of INOS from cultured epithelial cells: Following incubation with the cytokine mixture alone or with various concentrations of L-NIL, epithelial cells were lysed in 50 mM Tris/HCl, pH 7.4, containing 0.25 mM ethylene diaminotetraacetic acid, 0.5 mM phenylmethylsulfonyl fluoride, 5 μg/ml antipain, 5 μg/ml leupeptin and 5 μg/ml benzaminidine. The protein concentration was determined using the BioRad protein assay kit according to the manufacturer's instructions. Cell proteins were solubilized in sodium dodecyl sulfate polyacrylamide gel electrophoresis sample buffer ([…] Tris/HCl, pH 6.8, containing 10% v/v glycerol, 1% w/v SDS, 1% w/v β-mercaptoethanol, and 0.01% w/v bromophenol blue). The proteins (15 μg per lane) were resolved by electrophoresis in 3-8% (w/v) Tris-acetate SDS-polyacrylamide gels and transferred to Hybond-Enhanced Chemi-luminescence (ECL) nitro-cellulose membranes. Equal protein loading was determined by staining the blot with 0.1% (w/v) Ponceau S in 5% (v/v) acetic acid. The nitro-cellulose was then blocked overnight at 4° C. in 0.5M Tris-HCl,pH 7.4, containing 3% (w/v) normal goat serum, 1% (w/v) bovine serum albumin and 0.05% (v/v) Tween-20. […]
Media was harvested and measured for nitrite content (FIG. 1). […]

SMILES strings stand for the structures. “Also recorded” adds a separate entry of the source. Structures can show the parent of a compound that is named as a salt.

This is an account of results in patent US20040077639A1, “Methods for the treatment of respiratory diseases and conditions using a selective iNOS inhibitor” (priority 2002, published 2004).

The compound `CC(=NO)NC/C(F)=C\CC[C@H](N)C(=O)O` [Example G, (2S,5E)-2-amino-6-fluoro-7-[(1-hydroximinoethyl)amino]-5-heptenoic acid] registered a melting point of 198 to 200 °C. In addition, in [1], the ED50 was < 0.1 mg/kg.
As to `CC(=N)NCCCC[C@H](N)C(=O)Nc1nnn[nH]1` [Example NN, 2S-amino-6-[(1-iminoethyl)amino]-N-(1H-tetrazol-5-yl) hexanamide, hydrate, dihydrochloride], the “i-NOS inhibitory potency compared with NIL amide or NIL dimethylamide” value on i-NOS was “more potent”. In addition, in data set [2] (20 mg and 200 mg single oral doses, healthy volunteers and asthmatics, 72 hour assessment, FIG. 3, hydrate, dihydrochloride), the “change in exhaled NO” value was “rapid reduction in exhaled NO; also recorded: of rapid onset and dose-related”. Moreover, the “inhibition of exhaled NO” value in [2] (200 mg single oral dose, asthma) stood at 95%. Besides, in data set [2] (single oral dose, healthy volunteers and asthmatics), the “duration of decrease in exhaled breath NO” value was 3 days. In addition, the “effects on heart rate, blood pressure and FEV1” value in data set [3] (200 mg oral, FIG. 4) is “no apparent effects”. Also, the “effect on haematology or blood biochemistry” value in data set [3] (single oral dose) is “no effect”. For the same compound, the tolerability entry in [3] (single oral dose, healthy volunteers and asthmatics, FIG. 4) is “well tolerated”.
As to `COC(=O)[C@@H](N)CCCNC(=N)N[N+](=O)[O-]` [L-NAME], in the data set on exhaled NO, the “inhibition of exhaled NO” value is reported as “approximately 70%”. The “effect on airway inflammation” value in the data set with airway inflammation is given as “suppressed airway inflammation”.
For the compound `CC(=N)NCCCC[C@H](N)C(=O)O` [L-NIL], the IC50 in data set [4] was ~5.7 µM. Also, in [5], the “effect on iNOS expression as detected by immunoblotting” value is “did not affect”.
For the compound `N=C(N)NN` [amino-guanidine], the “inhibition of exhaled NO” value in the data set on exhaled NO is “approximately 70%”.
